Read-outs that look alike come from different tables or passages of the source.

This assay addresses T1, HlyA1-IFABP fusion protein (encoded by pIAR_207, SEQ ID NO: 20; IFABP wt accession NP_037200) (Rattus norvegicus, UniProt P02693).
T1 construct: pIAR_207
Description: Fluorescence spectroscopy titration with DAUDA, refolded HlyA1-IFABP. It is filed as binding. As to conditions: 100 nM protein, 20 mM KH2PO4, 0.25 mM EDTA, pH 7.3, excitation 350 nm, emission 500 nm. How it is done:
SEC analyses of refolded HlyA1-IFABP. A and C: SDS-PAGE gel of elution fractions from SEC analysis of HlyA1-IFABP refolded with Ca^2+ and elution chromatogram of the SEC. B and D: SDS-PAGE gel of elution fractions from SEC analysis of HlyA1-IFABP refolded with EDTA and elution chromatogram of the SEC. E: Purified HlyA1-IFABP in the presence of either Ca^2+ or EDTA were incubated with Factor Xa and protein samples were analyzed by SDS-PAGE at indicated time points. The arrow indicates the position of IFABP. F and G: Functional studies of HlyA1-IFABP using titration experiments with DAUDA. F: HlyA1-IFABP was refolded in the presence of Ca^2+ and purified by SEC. DAUDA was titrated to HlyA1-IFABP, the fluorescence signal at 500 nm was recorded and plotted against the DAUDA concentration. […]
11-(Dansylamino)undecanoic acid (DAUDA, Cayman Chemical) was prepared as a 1 mM stock solution in 50% isopropanol and 50% buffer (20 mM KH2PO4, 0.25 mM EDTA, pH 7.3) and further diluted to the appropriate concentrations with buffer. […] The fluorescence signal was recorded at a wavelength of 500 nm after excitation at 350 nm using a Fluorolog®-3 (Horiba) (Kim and Frieden (1998) Protein Sci, 7, 1821-1828). […] Fluorescence signals of DAUDA in buffer in the absence of protein was subtracted as background. The corrected and normalized fluorescence signals were plotted against the DAUDA concentration. […]

T1 sequence (P02693 1-132 with tags or gaps): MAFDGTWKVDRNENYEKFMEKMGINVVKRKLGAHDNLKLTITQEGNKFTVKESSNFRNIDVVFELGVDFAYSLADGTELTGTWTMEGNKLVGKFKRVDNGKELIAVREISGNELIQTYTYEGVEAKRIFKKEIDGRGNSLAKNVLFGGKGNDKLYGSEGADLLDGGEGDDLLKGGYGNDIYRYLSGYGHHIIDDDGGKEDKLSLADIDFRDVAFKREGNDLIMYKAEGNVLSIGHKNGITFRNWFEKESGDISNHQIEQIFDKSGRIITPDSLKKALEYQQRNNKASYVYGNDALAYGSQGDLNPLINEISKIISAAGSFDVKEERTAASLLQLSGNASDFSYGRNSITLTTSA

As to `CN(C)c1cccc2c(S(=O)(=O)NCCCCCCCCCCC(=O)O)cccc12` [DAUDA, 11-(((5-(dimethylamino)-1-naphthalenyl)sulfonyl)amino)-undecanoic acid], the Kd runs as follows: (refolded in the presence of Ca^2+, purified by SEC, read-out: KD for HlyA1-IFABP refolded in Ca^2+) 141 nM; (refolded/purified in the presence of EDTA, read-out: KD for HlyA1-IFABP refolded in EDTA) 264 nM.

Values taken from US10443081B2, “Methods for the expression of peptides and proteins” (Numaferm GmbH, priority 2013, dated 2019).
